Measured values from patent publication US11746111B2, “Siderophore conjugated pyrazolidinones, and analogues thereof” (YALE UNIVERSITY, priority 2018, dated 2023).
Values after ≈ are worked out from the molar mass of the structure shown. Like-named read-outs stand apart in the source and are kept apart here.

Columns and labels:
Pseudomonas aeruginosa = assay: MIC versus Pseudomonas aeruginosa strains incl. Class B metallo beta lactamases (Table 3); assay type: cell-based
From the text: (§1) Tables 2 and 3 show MIC values of compound 26 (YU253434) and 42 YU253911 versus E. coli and P. Aeruginosa strains containing Class B metallo beta lactamases VIM and NDM compared with Meropenem as a standard.

E. coli = assay: MIC versus E. coli strains incl. Class B metallo beta lactamases (Table 2); assay type: cell-based; conditions: Escherichia coli
From the text: as §1

[1] = biological target: Pseudomonas aeruginosa penicillin binding protein 3 (PBP3) (Pseudomonas aeruginosa, UniProt G3XD46); assay: Inhibition of penicillin binding protein 3 (Bocillin based assay); conditions: Pseudomonas aeruginosa PBP3 (FIG. 5)
Chain of Pseudomonas aeruginosa penicillin binding protein 3 (PBP3) (G3XD46 whole entry): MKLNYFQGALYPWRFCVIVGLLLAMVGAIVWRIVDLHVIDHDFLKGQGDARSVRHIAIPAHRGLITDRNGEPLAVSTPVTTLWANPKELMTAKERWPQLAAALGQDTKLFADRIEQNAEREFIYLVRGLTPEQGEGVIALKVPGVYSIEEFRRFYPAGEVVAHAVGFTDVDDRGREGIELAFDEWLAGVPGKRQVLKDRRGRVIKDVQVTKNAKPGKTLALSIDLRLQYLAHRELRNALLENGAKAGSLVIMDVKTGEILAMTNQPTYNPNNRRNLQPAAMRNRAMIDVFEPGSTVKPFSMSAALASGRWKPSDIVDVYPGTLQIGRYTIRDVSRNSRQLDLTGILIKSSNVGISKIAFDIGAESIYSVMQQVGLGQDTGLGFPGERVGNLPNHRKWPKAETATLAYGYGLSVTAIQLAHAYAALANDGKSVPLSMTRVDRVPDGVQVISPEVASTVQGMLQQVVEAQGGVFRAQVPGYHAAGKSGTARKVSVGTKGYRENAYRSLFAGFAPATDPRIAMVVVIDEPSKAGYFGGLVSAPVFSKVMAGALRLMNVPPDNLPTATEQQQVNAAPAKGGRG
From the text: FIG. 5 is a graph showing compound 26 inhibiting Pseudomonas aeruginosa penicillin binding protein 3 (PBP3).
To assess the affinity of the inhibitors for PBP3 and PBP1a and PBP1b, a Bocillin based assay using PA01 membranes as well as purified proteins is used. Delineation of remarkably active compounds occurs by establishing the MIC90 against Ec, Pa, Ab and Kp as well as static time kill measurement. When siderophore linked pyrazolidinone agents show remarkable activity (i.e. activity equal to or greater than current clinical agents Meropenem or Aztreonam) in these latter secondary assays, they are tested in vivo in a mouse septicemia efficacy model after protein binding measurement and will show potent in vivo activity.

[2] = tested on: E. coli clinical isolates; assay: Microdilution broth MIC, E. coli clinical isolates (Table 1); assay type: cell-based; conditions: Escherichia coli, read-out: MIC
Procedure: (§2) Microdilution Broth Minimum Inhibitory Concentrations (MICs)
(§3) MICs were performed in triplicate in cation adjusted Mueller-Hinton (MH) broth 30 according to CLSI guidelines. Firstly, overnight cultures of E. coli and K. pneumoniae clinical isolates were inoculated into 5 ml MH broth to OD600=0.1 and grown to OD600=0.224 (approximately 1-2×10^8 CFU/ml). These cultures were diluted (3 μl+4997 μl MH) and 100 μl inoculated into each well of a 96-well plate containing 100 μl of serial dilutions of compound 26 (YU253434), ampicillin, ceftazidime, or imipenem. The plates were placed in a 37° C. incubator for 18-20 hours and wells checked for growth.

[3] = tested on: K. pneumoniae clinical isolates; assay: Microdilution broth MIC, K. pneumoniae clinical isolates (Table 1); assay type: cell-based; conditions: Klebsiella pneumoniae
Procedure: as §2, §3

[4] = ATCC27853, P. aeruginosa isolate ATCC 27853, CLSI control
[5] = P. aeruginosa isolate AR-229, OXA-50
[6] = P. aeruginosa isolate AR-230, VIM-2
[7] = P. aeruginosa isolate AR-231, KPC-5
[8] = P. aeruginosa isolate AR-232, OXA-50
[9] = P. aeruginosa isolate AR-245, VIM
[10] = P. aeruginosa isolate AR-249, VIM
[11] = P. aeruginosa isolate AR-254, VIM
[12] = P. aeruginosa isolate AR-270, OXA-50
[13] = P. aeruginosa isolate J4242, UNC-D
[14] = ATCC25822, E. coli isolate ATCC 25822, CLSI costrol
[15] = E. coli isolate AK-114, KPC-3, TEM-18
[16] = E. coli isolate AR-11, CTX-M-15, OxA-1
[17] = E. coli isolate J4245, Michigan

## C[C@@H](O)[C@H]1C(=O)N2C(C(=O)O)=C(S[C@@H]3CN[C@H](C(=O)N(C)C)C3)[C@H](C)[C@H]12 [Meropenem]
Pseudomonas aeruginosa; [4]
  MIC: 1 µg/mL (≈ 2.61 µM)
Pseudomonas aeruginosa; [5]
  MIC: 64 µg/mL (≈ 167 µM)
Pseudomonas aeruginosa; [6]
  MIC: > 64 µg/mL
Pseudomonas aeruginosa; [7]
  MIC: > 64 µg/mL
Pseudomonas aeruginosa; [8]
  MIC: 8 µg/mL (≈ 20.9 µM)
Pseudomonas aeruginosa; [9]
  MIC: 32 µg/mL (≈ 83.4 µM)
Pseudomonas aeruginosa; [10]
  MIC: > 64 µg/mL
Pseudomonas aeruginosa; P. aeruginosa isolate AR-252
  MIC: 64 µg/mL (≈ 167 µM)
Pseudomonas aeruginosa; [11]
  MIC: > 64 µg/mL
Pseudomonas aeruginosa; [12]
  MIC: 4 µg/mL (≈ 10.4 µM)
Pseudomonas aeruginosa; [13]
  MIC: 16 µg/mL (≈ 41.7 µM)
E. coli; [14]
  MIC: ≤ 0.125 µg/mL
E. coli; E. coli isolate AA-118, NDM
  MIC: > 64 µg/mL
E. coli; E. coli isolate AA-119, NDM
  MIC: 64 µg/mL (≈ 167 µM)
E. coli; E. coli isolate AA-128, NDM
  MIC: 64 µg/mL (≈ 167 µM)
E. coli; [15]
  MIC: 4 µg/mL (≈ 10.4 µM)
E. coli; E. coli isolate AR-1, KPC-3
  MIC: 4 µg/mL (≈ 10.4 µM)
E. coli; [16]
  MIC: ≤ 0.125 µg/mL
E. coli; E. coli isolate AR-137, NDM-6
  MIC: > 64 µg/mL
E. coli; E. coli isolate AR-145, NDM
  MIC: > 64 µg/mL
E. coli; E. coli isolate J4244, MN
  MIC: ≤ 0.125 µg/mL
E. coli; [17]
  MIC: ≤ 0.125 µg/mL

## CC(C)(O/N=C(\C(=O)N[C@H]1CN2CC(C(=O)NCCN3C(=O)c4cc(O)c(O)cc4C3=O)=C(C(=O)O)N2C1=O)c1csc(N)n1)C(=O)O [Compound 26, (S,Z)-6-(2-(2-aminothiazol-4-yl)-2-(((2-carboxypropan-2-yl)oxy)imino)acetamido)-2-((2-(5,6-dihydroxy-1,3-dioxoisoindolin-2-yl)ethyl)carbamoyl)-5-oxo-6,7-dihydro-1H,5H-pyrazolo[1,2-a]pyrazole-3-carboxylic acid]
Pseudomonas aeruginosa; [4]
  MIC: 0.25 µg/mL (≈ 0.364 µM)
Pseudomonas aeruginosa; [5]
  MIC: 0.25 µg/mL (≈ 0.364 µM)
Pseudomonas aeruginosa; [6]
  MIC: 1 µg/mL (≈ 1.46 µM)
Pseudomonas aeruginosa; [7]
  MIC: 0.5 µg/mL (≈ 0.728 µM)
Pseudomonas aeruginosa; [8]
  MIC: 0.5 µg/mL (≈ 0.728 µM)
Pseudomonas aeruginosa; [9]
  MIC: 0.5 µg/mL (≈ 0.728 µM)
Pseudomonas aeruginosa; [10]
  MIC: 1 µg/mL (≈ 1.46 µM)
Pseudomonas aeruginosa; P. aeruginosa isolate AR-252
  MIC: 1 µg/mL (≈ 1.46 µM)
Pseudomonas aeruginosa; [11]
  MIC: 2 µg/mL (≈ 2.91 µM)
Pseudomonas aeruginosa; [12]
  MIC: 0.25 µg/mL (≈ 0.364 µM)
Pseudomonas aeruginosa; [13]
  MIC: 0.5 µg/mL (≈ 0.728 µM)
[1]
  IC50: 2500 ± 500 nM
[2]; BAA202, E. coli BAA-202, SHV-1
  MIC: 4 µg/mL (≈ 5.83 µM)
[2]; E. coli 35218, TEM-1
  MIC: 0.125 µg/mL (≈ 0.182 µM)
[2]; E. coli LC4, TEM, SHV-12
  MIC: 16 µg/mL (≈ 23.3 µM)
[2]; E. coli LC12, CTX-M-1 grp(15)
  MIC: > 128 µg/mL
[2]; E. coli LC33, CTX-M-9 group
  MIC: 1 µg/mL (≈ 1.46 µM)
[2]; E. coli LC38, CTX-M-1 grp(15), PB AmpC (ACT/MIR)
  MIC: 0.25 µg/mL (≈ 0.364 µM)
[2]; E. coli LC41, TEM (238S), PB AmpC (ACT/MIR), CTX-M-1 grp(15)
  MIC: 16 µg/mL (≈ 23.3 µM)
[2]; E. coli LC77, TEM, KPC
  MIC: 0.5 µg/mL (≈ 0.728 µM)
[2]; E. coli LC81, SHV (238S + 240K)
  MIC: 16 µg/mL
[2]; E. coli LC98, CMY (group II)
  MIC: 4 µg/mL (≈ 5.83 µM)
[2]; E. coli LC109, CTX-M-9 group, CMY (group II)
  MIC: 0.25 µg/mL (≈ 0.364 µM)
[2]; E. coli LC111, TEM (164S)
  MIC: 1 µg/mL (≈ 1.46 µM)
[2]; E. coli LC136, SHV (WT + 238S)
  MIC: 0.125 µg/mL
[2]; E. coli Rush24, CMY (group II)
  MIC: 8 µg/mL (≈ 11.7 µM)
E. coli; [14]
  MIC: 2 µg/mL (≈ 2.91 µM)
E. coli; E. coli isolate AA-118, NDM
  MIC: 4 µg/mL (≈ 5.83 µM)
E. coli; E. coli isolate AA-119, NDM
  MIC: 4 µg/mL (≈ 5.83 µM)
E. coli; E. coli isolate AA-128, NDM
  MIC: 4 µg/mL (≈ 5.83 µM)
E. coli; [15]
  MIC: 0.5 µg/mL (≈ 0.728 µM)
E. coli; E. coli isolate AR-1, KPC-3
  MIC: 1 µg/mL (≈ 1.46 µM)
E. coli; [16]
  MIC: 0.5 µg/mL (≈ 0.728 µM)
E. coli; E. coli isolate AR-137, NDM-6
  MIC: 4 µg/mL (≈ 5.83 µM)
E. coli; E. coli isolate AR-145, NDM
  MIC: > 64 µg/mL
E. coli; E. coli isolate J4244, MN
  MIC: 2 µg/mL (≈ 2.91 µM)
E. coli; [17]
  MIC: 0.25 µg/mL (≈ 0.364 µM)
[3]; K. pneumoniae 7000063, β-lactamase SHV-18, read-out: MIC
  MIC: 2 µg/mL (≈ 2.91 µM)
[3]; K. pneumoniae KB390 Quale, TEM-30, TEM-1, KPC-2, SHV-12, read-out: MIC
  MIC: 2 µg/mL (≈ 2.91 µM)
[3]; K. pneumoniae LC40, CTX-M-1 grp(15), TEM (164S), read-out: MIC
  MIC: 16 µg/mL (≈ 23.3 µM)
[3]; K. pneumoniae LC56, CTX-M-1 grp(15), read-out: MIC
  MIC: 0.5 µg/mL (≈ 0.728 µM)
[3]; K. pneumoniae LC102, SHV-1 (WT + 238S), read-out: MIC
  MIC: 1 µg/mL
[3]; K. pneumoniae LC121, SHV-1 (WT + 238S + 240K), read-out: MIC
  MIC: 4 µg/mL
[3]; K. pneumoniae Rush23, CTX-M-9 group, read-out: MIC
  MIC: 2 µg/mL (≈ 2.91 µM)
[3]; K. pneumoniae VA-368, KPC-2, TEM-1, SHV-5, SHV-68
  MIC: 0.25 µg/mL (≈ 0.364 µM)
[3]; K. pneumoniae VA-384, KPC-2, TEM-1, SHV-11, SHV-12, SHV-14
  MIC: 8 µg/mL (≈ 11.7 µM)
[3]; K. pneumoniae VA-398, KPC-3, TEM-1, SHV-11, SHV-12, SHV-27
  MIC: 8 µg/mL (≈ 11.7 µM)

## CC(C)(O/N=C(\C(=O)N[C@H]1CN2CC(C(=O)NCCN3C(=O)c4cc(O)c(O)cc4C3=O)=C(C(=O)O)N2C1=O)c1nc(N)sc1Cl)C(=O)O [Compound 42, (S,Z)-6-(2-(2-amino-5-chlorothiazol-4-yl)-2-(((2-carboxypropan-2-yl)oxy)imino)acetamido)-2-((2-(5,6-dihydroxy-1,3-dioxoisoindolin-2-yl)ethyl)carbamoyl)-5-oxo-6,7-dihydro-1H,5H-pyrazolo[1,2-a]pyrazole-3-carboxylic acid]
Pseudomonas aeruginosa; [4]
  MIC: 0.5 µg/mL (≈ 0.693 µM)
Pseudomonas aeruginosa; [5]
  MIC: 0.5 µg/mL (≈ 0.693 µM)
Pseudomonas aeruginosa; [6]
  MIC: 1 µg/mL (≈ 1.39 µM)
Pseudomonas aeruginosa; [7]
  MIC: 1 µg/mL (≈ 1.39 µM)
Pseudomonas aeruginosa; [8]
  MIC: 0.5 µg/mL (≈ 0.693 µM)
Pseudomonas aeruginosa; [9]
  MIC: 0.5 µg/mL (≈ 0.693 µM)
Pseudomonas aeruginosa; [10]
  MIC: 1 µg/mL (≈ 1.39 µM)
Pseudomonas aeruginosa; P. aeruginosa isolate AR-252
  MIC: 1 µg/mL (≈ 1.39 µM)
Pseudomonas aeruginosa; [11]
  MIC: 2 µg/mL (≈ 2.77 µM)
Pseudomonas aeruginosa; [12]
  MIC: 0.25 µg/mL (≈ 0.347 µM)
Pseudomonas aeruginosa; [13]
  MIC: 0.5 µg/mL (≈ 0.693 µM)
E. coli; [14]
  MIC: > 64 µg/mL
E. coli; E. coli isolate AA-118, NDM
  MIC: > 64 µg/mL
E. coli; E. coli isolate AA-119, NDM
  MIC: > 64 µg/mL
E. coli; E. coli isolate AA-128, NDM
  MIC: > 64 µg/mL
E. coli; [15]
  MIC: 2 µg/mL (≈ 2.77 µM)
E. coli; E. coli isolate AR-1, KPC-3
  MIC: > 64 µg/mL
E. coli; [16]
  MIC: 4 µg/mL (≈ 5.55 µM)
E. coli; E. coli isolate AR-137, NDM-6
  MIC: > 64 µg/mL
E. coli; E. coli isolate AR-145, NDM
  MIC: > 64 µg/mL
E. coli; E. coli isolate J4244, MN
  MIC: > 64 µg/mL
E. coli; [17]
  MIC: > 64 µg/mL
